In US9340590B2 (priority 2011, dated 2016):
Read-outs that look alike come from different tables or passages of the source. Positions of bridges follow the written chain, without caps; N, C: chain ends. Residues, ends and D or L forms follow the SMILES beside them.

Key:
hNav1.3 = hNav1.3 (Homo sapiens, UniProt Q9NY46); assay: cell-based; conditions: IonWorks Quattro, read-out: IWQ Use Nav1.3
hNav1.5 = hNav1.5 (Homo sapiens, UniProt Q14524); assay: cell-based
[1] = IonWorks Quattro, Use, read-out: IWQ Use Nav1.5

hNav1.5, sequence (Q14524 whole entry, looked up): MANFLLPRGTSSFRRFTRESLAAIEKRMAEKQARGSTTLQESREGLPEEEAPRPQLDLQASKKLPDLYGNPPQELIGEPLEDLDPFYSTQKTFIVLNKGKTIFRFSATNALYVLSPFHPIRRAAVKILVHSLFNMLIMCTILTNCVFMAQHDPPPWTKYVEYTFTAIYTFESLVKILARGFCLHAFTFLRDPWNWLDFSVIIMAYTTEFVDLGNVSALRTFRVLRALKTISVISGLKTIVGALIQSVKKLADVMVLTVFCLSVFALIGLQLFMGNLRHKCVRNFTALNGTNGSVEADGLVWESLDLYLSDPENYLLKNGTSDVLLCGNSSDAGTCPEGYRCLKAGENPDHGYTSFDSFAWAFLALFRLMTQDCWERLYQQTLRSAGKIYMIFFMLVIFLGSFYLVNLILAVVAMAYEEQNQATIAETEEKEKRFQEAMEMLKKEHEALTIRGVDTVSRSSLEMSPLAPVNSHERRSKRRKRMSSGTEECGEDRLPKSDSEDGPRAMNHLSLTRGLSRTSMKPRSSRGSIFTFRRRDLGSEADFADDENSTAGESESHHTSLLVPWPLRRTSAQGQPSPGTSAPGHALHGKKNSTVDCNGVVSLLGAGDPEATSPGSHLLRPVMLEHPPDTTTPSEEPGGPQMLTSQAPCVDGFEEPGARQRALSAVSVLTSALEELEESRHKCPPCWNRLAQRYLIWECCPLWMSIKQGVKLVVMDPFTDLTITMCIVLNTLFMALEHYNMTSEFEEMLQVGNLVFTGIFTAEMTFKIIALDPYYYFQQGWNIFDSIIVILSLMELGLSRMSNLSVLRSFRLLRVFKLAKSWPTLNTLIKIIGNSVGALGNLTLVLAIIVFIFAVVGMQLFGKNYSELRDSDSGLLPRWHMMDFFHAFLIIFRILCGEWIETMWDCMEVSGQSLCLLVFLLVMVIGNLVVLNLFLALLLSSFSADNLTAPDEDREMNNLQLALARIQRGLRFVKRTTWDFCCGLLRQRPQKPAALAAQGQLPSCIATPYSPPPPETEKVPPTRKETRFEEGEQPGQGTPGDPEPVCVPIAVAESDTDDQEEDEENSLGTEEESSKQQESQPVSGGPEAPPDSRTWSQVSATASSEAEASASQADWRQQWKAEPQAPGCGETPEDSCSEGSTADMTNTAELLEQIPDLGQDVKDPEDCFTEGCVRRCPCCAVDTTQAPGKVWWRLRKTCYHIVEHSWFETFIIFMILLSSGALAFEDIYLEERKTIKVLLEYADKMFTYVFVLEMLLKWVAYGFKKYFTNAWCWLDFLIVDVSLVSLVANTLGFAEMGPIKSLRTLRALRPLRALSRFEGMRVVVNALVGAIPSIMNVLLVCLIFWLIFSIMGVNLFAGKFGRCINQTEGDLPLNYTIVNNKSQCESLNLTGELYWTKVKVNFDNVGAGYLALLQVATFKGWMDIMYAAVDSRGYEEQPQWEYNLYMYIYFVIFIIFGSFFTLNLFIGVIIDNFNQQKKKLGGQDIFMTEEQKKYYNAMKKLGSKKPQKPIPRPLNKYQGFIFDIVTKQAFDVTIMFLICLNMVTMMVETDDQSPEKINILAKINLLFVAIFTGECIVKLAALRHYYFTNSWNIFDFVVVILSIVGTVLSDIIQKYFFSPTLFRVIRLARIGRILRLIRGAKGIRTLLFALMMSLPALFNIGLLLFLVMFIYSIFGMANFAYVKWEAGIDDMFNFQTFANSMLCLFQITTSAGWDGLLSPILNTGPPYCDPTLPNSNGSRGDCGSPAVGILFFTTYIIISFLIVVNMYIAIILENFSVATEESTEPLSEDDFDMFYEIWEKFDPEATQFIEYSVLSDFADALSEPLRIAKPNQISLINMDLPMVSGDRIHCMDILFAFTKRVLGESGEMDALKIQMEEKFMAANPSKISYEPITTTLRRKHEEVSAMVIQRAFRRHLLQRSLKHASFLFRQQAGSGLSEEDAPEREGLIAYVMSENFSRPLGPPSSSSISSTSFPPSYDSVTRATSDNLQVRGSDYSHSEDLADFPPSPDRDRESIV
hNav1.3, sequence (Q9NY46 whole entry, looked up): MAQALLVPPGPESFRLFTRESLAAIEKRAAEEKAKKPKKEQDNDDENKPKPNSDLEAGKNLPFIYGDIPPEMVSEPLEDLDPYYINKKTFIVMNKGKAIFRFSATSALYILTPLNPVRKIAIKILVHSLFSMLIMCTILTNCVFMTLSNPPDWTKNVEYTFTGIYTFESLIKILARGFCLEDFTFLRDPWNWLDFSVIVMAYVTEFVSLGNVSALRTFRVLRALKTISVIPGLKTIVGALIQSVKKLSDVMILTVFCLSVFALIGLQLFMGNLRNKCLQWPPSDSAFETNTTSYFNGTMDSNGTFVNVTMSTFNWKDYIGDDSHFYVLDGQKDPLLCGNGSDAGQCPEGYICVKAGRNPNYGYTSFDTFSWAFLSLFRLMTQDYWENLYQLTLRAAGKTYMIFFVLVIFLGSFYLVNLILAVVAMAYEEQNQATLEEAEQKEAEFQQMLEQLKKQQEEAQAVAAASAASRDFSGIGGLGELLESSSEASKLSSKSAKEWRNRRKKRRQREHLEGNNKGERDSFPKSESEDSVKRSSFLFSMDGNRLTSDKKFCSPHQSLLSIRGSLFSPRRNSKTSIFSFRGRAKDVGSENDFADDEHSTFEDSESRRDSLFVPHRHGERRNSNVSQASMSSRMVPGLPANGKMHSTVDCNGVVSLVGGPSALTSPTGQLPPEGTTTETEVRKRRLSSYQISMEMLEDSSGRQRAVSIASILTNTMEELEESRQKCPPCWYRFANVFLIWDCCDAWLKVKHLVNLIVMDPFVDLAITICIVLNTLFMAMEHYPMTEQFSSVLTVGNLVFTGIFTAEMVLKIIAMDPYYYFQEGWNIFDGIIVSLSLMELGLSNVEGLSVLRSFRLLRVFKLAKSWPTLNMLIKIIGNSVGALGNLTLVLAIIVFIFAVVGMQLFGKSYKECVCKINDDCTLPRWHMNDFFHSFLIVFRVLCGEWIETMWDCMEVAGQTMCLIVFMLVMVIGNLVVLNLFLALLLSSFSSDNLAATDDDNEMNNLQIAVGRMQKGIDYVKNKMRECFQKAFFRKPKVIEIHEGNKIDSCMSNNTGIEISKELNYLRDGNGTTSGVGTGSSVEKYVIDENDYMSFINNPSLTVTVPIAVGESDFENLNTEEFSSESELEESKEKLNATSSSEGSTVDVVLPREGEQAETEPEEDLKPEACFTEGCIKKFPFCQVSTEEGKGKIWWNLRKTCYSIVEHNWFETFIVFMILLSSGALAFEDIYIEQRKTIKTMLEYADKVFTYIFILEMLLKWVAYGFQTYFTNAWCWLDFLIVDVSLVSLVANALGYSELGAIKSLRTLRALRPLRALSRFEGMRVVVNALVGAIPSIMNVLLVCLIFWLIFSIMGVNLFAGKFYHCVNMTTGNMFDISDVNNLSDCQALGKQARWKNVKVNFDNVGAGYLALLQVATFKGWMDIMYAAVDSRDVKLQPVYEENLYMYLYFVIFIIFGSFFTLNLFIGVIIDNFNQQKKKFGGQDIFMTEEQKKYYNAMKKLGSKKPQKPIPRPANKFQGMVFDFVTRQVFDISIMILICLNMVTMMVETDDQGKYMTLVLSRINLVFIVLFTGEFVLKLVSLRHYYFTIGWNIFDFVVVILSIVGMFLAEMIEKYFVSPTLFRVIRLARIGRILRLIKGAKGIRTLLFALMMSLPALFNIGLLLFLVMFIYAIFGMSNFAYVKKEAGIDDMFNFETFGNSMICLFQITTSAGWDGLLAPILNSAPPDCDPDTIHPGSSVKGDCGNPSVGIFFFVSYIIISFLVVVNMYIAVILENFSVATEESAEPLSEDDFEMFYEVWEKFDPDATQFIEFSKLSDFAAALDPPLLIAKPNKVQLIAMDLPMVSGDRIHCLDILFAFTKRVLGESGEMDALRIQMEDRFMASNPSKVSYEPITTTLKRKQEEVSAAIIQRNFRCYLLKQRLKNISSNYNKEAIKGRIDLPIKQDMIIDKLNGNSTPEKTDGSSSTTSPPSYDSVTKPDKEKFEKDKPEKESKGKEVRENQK

Structure (SMILES) | IC50 (hNav1.3; Table 25, use, […]) [µM] | IC50 (hNav1.5; IWQ Use Nav1.5 (μM)) [µM] | IC50 (hNav1.3; Use) [µM] | IC50 (hNav1.5; [1]) [µM]
CC[C@H](C)[C@@H]1NC(=O)[C@@H]2CSSC[C@@H]3NC(=O)[C@H](C(C)C)NC(=O)[C@H](CC(C)C)NC(=O)[C@H](CC(N)=O)NC(=O)[C@@H]4CCCN4C(=O)[C@H](CCCNC(=N)N)NC(=O)[C@H](CSSC[C@H](NC(=O)[C@@H](N)CC(=O)O)C(=O)N[C@@H](CC(C)C)C(=O)NCC(=O)N[C@@H](Cc4ccccc4)C(=O)N[C@@H](CCSC)C(=O)N[C@@H](CCCNC(=N)N)C(=O)N[C@@H](CCCCN)C(=O)N2)NC(=O)[C@H](CSSC[C@@H](C(=O)N[C@@H](CCCCN)C(=O)N[C@@H](CCCNC(=N)N)C(=O)N[C@H](C(=O)N[C@@H](Cc2ccccc2)C(N)=O)C(C)C)NC(=O)[C@H](Cc2c[nH]c4ccccc24)NC(=O)[C@H](CCCCN)NC(=O)[C@H](Cc2cnc[nH]2)NC(=O)[C@H]([C@@H](C)O)NC(=O)[C@H](CCCNC(=N)N)NC(=O)[C@H](CO)NC3=O)NC(=O)[C@H](CCCCN)NC(=O)[C@H](CC(=O)O)NC(=O)[C@H](CC(N)=O)NC(=O)[C@H](CC(=O)O)NC(=O)[C@@H]2CCCN2C1=O [compound 159] (H-DCLGFMRKCIPDNDKCCRPNLVCSRTHKWCKRVF-NH2; disulfide 2-17, 9-23, 16-30) | 0.87 | 8.65 |  | 
CC[C@H](C)[C@@H]1NC(=O)[C@@H]2CSSC[C@@H]3NC(=O)[C@H](C(C)C)NC(=O)[C@H](CC(C)C)NC(=O)[C@H](CC(N)=O)NC(=O)[C@H](CCCNC(=N)N)NC(=O)[C@H](CCCNC(=N)N)NC(=O)[C@H](CSSC[C@H](NC(=O)[C@@H](N)CC(=O)O)C(=O)N[C@@H](CC(C)C)C(=O)NCC(=O)N[C@@H](Cc4ccccc4)C(=O)N[C@@H](CCSC)C(=O)N[C@@H](CCCNC(=N)N)C(=O)N[C@@H](CCCCN)C(=O)N2)NC(=O)[C@H](CSSC[C@@H](C(=O)N[C@@H](CCCCN)C(=O)N[C@@H](Cc2ccc(O)cc2)C(=O)N[C@H](C(=O)N[C@@H](Cc2ccccc2)C(N)=O)C(C)C)NC(=O)[C@H](Cc2c[nH]c4ccccc24)NC(=O)[C@H](CCCCN)NC(=O)[C@H](Cc2cnc[nH]2)NC(=O)[C@H]([C@@H](C)O)NC(=O)[C@H](CCCNC(=N)N)NC(=O)[C@H](CO)NC3=O)NC(=O)[C@H](CCCCN)NC(=O)[C@H](CC(=O)O)NC(=O)[C@H](CC(N)=O)NC(=O)[C@H](CC(=O)O)NC(=O)[C@@H]2CCCN2C1=O [compound 157] (H-DCLGFMRKCIPDNDKCCRRNLVCSRTHKWCKYVF-NH2; disulfide 2-17, 9-23, 16-30) |  |  | 0.06 | 6.16
CSCC[C@@H]1NC(=O)[C@H](Cc2ccccc2)NC(=O)CNC(=O)[C@H](CC(C)C)NC(=O)[C@@H](NC(=O)[C@@H](N)CC(=O)O)CSSC[C@@H]2NC(=O)[C@@H]3CSSC[C@@H](C(=O)N[C@@H](CCCCN)C(=O)N[C@@H](Cc4ccc(O)cc4)C(=O)N[C@H](C(=O)N[C@@H](Cc4ccccc4)C(N)=O)C(C)C)NC(=O)[C@H](Cc4c[nH]c5ccccc45)NC(=O)[C@H](CCCCN)NC(=O)[C@H](Cc4cnc[nH]4)NC(=O)[C@H]([C@@H](C)O)NC(=O)[C@H](CCCNC(=N)N)NC(=O)[C@H](CO)NC(=O)[C@H](CSSC[C@H](NC(=O)[C@H](CCCCN)NC(=O)[C@H](CCCNC(=N)N)NC1=O)C(=O)N[C@@H](Cc1ccccc1)C(=O)N1CCC[C@H]1C(=O)N[C@@H](CC(=O)O)C(=O)N[C@@H](CC(N)=O)C(=O)N[C@@H](CC(=O)O)C(=O)N[C@@H](CCCCN)C(=O)N3)NC(=O)[C@H](C(C)C)NC(=O)[C@H](CC(C)C)NC(=O)[C@H](CC(N)=O)NC(=O)[C@@H]1CCCN1C(=O)[C@H](CCCNC(=N)N)NC2=O [compound 302] (H-DCLGFMRKCFPDNDKCCRPNLVCSRTHKWCKYVF-NH2; disulfide 2-17, 9-23, 16-30) |  |  | 0.08 | 5.33
CSCC[C@@H]1NC(=O)[C@H](Cc2ccccc2)NC(=O)CNC(=O)[C@H](CC(C)C)NC(=O)[C@@H](NC(=O)[C@@H](N)CC(=O)O)CSSC[C@@H]2NC(=O)[C@@H]3CSSC[C@@H](C(=O)N[C@@H](CCCCN)C(=O)N[C@@H](Cc4ccc(O)cc4)C(=O)N[C@H](C(=O)N[C@@H](Cc4ccccc4)C(N)=O)C(C)C)NC(=O)[C@H](Cc4c[nH]c5ccccc45)NC(=O)[C@H](CCCCN)NC(=O)[C@H](Cc4cnc[nH]4)NC(=O)[C@H]([C@@H](C)O)NC(=O)[C@H](CCCNC(=N)N)NC(=O)[C@H](CO)NC(=O)[C@H](CSSC[C@H](NC(=O)[C@H](CCCCN)NC(=O)[C@H](CCCNC(=N)N)NC1=O)C(=O)N[C@@H](Cc1ccc(O)cc1)C(=O)N1CCC[C@H]1C(=O)N[C@@H](CC(=O)O)C(=O)N[C@@H](CC(N)=O)C(=O)N[C@@H](CC(=O)O)C(=O)N[C@@H](CCCCN)C(=O)N3)NC(=O)[C@H](C(C)C)NC(=O)[C@H](CC(C)C)NC(=O)[C@H](CC(N)=O)NC(=O)[C@@H]1CCCN1C(=O)[C@H](CCCNC(=N)N)NC2=O [compound 299] (H-DCLGFMRKCYPDNDKCCRPNLVCSRTHKWCKYVF-NH2; disulfide 2-17, 9-23, 16-30) |  |  | 0.07 | 5.41
CC[C@H](C)[C@@H]1NC(=O)[C@@H]2CSSC[C@@H]3NC(=O)[C@H](C(C)C)NC(=O)[C@H](CC(C)C)NC(=O)[C@H](CC(N)=O)NC(=O)[C@@H]4CCCN4C(=O)[C@H](CCCNC(=N)N)NC(=O)[C@H](CSSC[C@H](NC(=O)[C@@H](N)CC(=O)O)C(=O)N[C@@H](CC(C)C)C(=O)NCC(=O)N[C@@H](Cc4ccccc4)C(=O)N[C@@H](CCSC)C(=O)N[C@@H](CCCNC(=N)N)C(=O)N[C@@H](CCCCN)C(=O)N2)NC(=O)[C@H](CSSC[C@@H](C(=O)N[C@@H](CCCCN)C(=O)N[C@@H](Cc2ccc(O)cc2)C(=O)N[C@H](C(=O)N[C@@H](Cc2ccccc2)C(N)=O)C(C)C)NC(=O)[C@H](Cc2c[nH]c4ccccc24)NC(=O)[C@H](CCCCN)NC(=O)[C@H](Cc2cnc[nH]2)NC(=O)[C@H]([C@@H](C)O)NC(=O)[C@H](CCCNC(=N)N)NC(=O)[C@H](CO)NC3=O)NC(=O)[C@H](CCCCN)NC(=O)[C@H](CC(=O)O)NC(=O)[C@H](CC(N)=O)NC(=O)[C@H](CC(=O)O)NC(=O)[C@H](CCC(=O)O)NC1=O [SEQ ID NO: 147, [Glu11]GpTx-1] (H-DCLGFMRKCIEDNDKCCRPNLVCSRTHKWCKYVF-NH2; disulfide 2-17, 9-23, 16-30) |  | 15.6 | 0.21 | 
CSCC[C@@H]1NC(=O)[C@H](Cc2ccccc2)NC(=O)CNC(=O)[C@H](CC(C)C)NC(=O)[C@@H](NC(=O)[C@@H](N)CC(=O)O)CSSC[C@@H]2NC(=O)[C@@H]3CSSC[C@@H](C(=O)N[C@@H](CCCCN)C(=O)N[C@@H](Cc4ccc(O)cc4)C(=O)N[C@H](C(=O)N[C@@H](Cc4ccccc4)C(N)=O)C(C)C)NC(=O)[C@H](Cc4c[nH]c5ccccc45)NC(=O)[C@H](CCCCN)NC(=O)[C@H](Cc4cnc[nH]4)NC(=O)[C@H]([C@@H](C)O)NC(=O)[C@H](CCCNC(=N)N)NC(=O)[C@H](CO)NC(=O)[C@H](CSSC[C@H](NC(=O)[C@H](CCCCN)NC(=O)[C@H](CCCNC(=N)N)NC1=O)C(=O)N[C@@H](C(C)C)C(=O)N1CCC[C@H]1C(=O)N[C@@H](CC(=O)O)C(=O)N[C@@H](CC(N)=O)C(=O)N[C@@H](CC(=O)O)C(=O)N[C@@H](CCCCN)C(=O)N3)NC(=O)[C@H](C(C)C)NC(=O)[C@H](CC(C)C)NC(=O)[C@H](CC(N)=O)NC(=O)[C@@H]1CCCN1C(=O)[C@H](CCCNC(=N)N)NC2=O [compound 301] (H-DCLGFMRKCVPDNDKCCRPNLVCSRTHKWCKYVF-NH2; disulfide 2-17, 9-23, 16-30) |  |  | 0.09 | 7.88
